As a reminder, the IC50 is the point on the concentration scale where inhibition reaches its midpoint.

Each structure is given as a SMILES string. Activity calls are given as the source filed them. The calls are words filed in the database; no cut-off is given here.

Experimental findings from ChEMBL document CHEMBL4613243, “Calosides A-F, Cardenolides from Calotropis gigantea and Their Cytotoxic Activity” (J Nat Prod, 2020) are described below.

For one assay, the system named is HeLa. As to the kind of experiment: Antiproliferative activity against human HeLa cells assessed as reduction in cell viability after 72 hrs by WST-8 assay. It is filed as functional, cell-based.
Assay [1] relates to PANC-1. As to the kind of experiment: Antiproliferative activity against human PANC1 cells assessed as reduction in cell viability after 72 hrs by WST-8 assay. It is filed as functional, cell-based. Conditions: PANC-1, 72 h.
The test system of assay [2] is PANC-1. In words: Cytotoxicity against human PANC1 cells assessed as reduction in cell viability at 0.78 uM after 74 hrs by crystal violet staining based assay. Type of assay: functional.
The test system of assay [3] is PANC-1. As to the kind of experiment: Cytotoxicity against human PANC1 cells assessed as reduction in cell viability at 0.05 to 100 uM after 74 hrs by crystal violet staining based assay. It is filed as functional.

As to `C[C@]12CC[C@H]3[C@@H](CC[C@@H]4C[C@@H](O[C@@H]5O[C@H](CO)[C@@H](O)[C@@H](O)[C@H]5O)CC[C@@]43C=O)[C@@]1(O)CC[C@@H]2C1=CC(=O)OC1`, the IC50 in the assay on HeLa was 380 nM; in the assay on PANC-1 [1], 150 nM.

Turning to `C[C@H]1O[C@@H](O[C@@H]2CC[C@@]34CO[C@@]5(CC[C@@H]3C2)[C@@H]4CC[C@]2(C)[C@H](C3=CC(=O)OC3)CC[C@@H]25)[C@H](O)[C@H](O)[C@@H]1O`, the IC50 is > 10000 nM in the assay on HeLa and 4600 nM in the assay on PANC-1 [1].

As for `C[C@@H]1C[C@H](O)[C@]2(O)O[C@@H]3C[C@@]4(C=O)[C@@H](CC[C@@H]5[C@@H]4CC[C@]4(C)[C@@H](C6=CC(=O)OC6)CC[C@]54O)C[C@H]3O[C@@H]2O1` [CALOTROPIN], the IC50 in the assay on HeLa and with PANC-1 [1] was > 10000 nM each time.

As to `C[C@H]1C[C@@](O)(CC(=O)O)[C@]2(O)O[C@@H]3C[C@@]4(C=O)[C@@H](CC[C@@H]5[C@@H]4CC[C@]4(C)[C@@H](C6=CC(=O)OC6)CC[C@]54O)C[C@H]3O[C@H]2O1`, the results for the IC50 in the assay with HeLa and with PANC-1 [1] were 1600 nM and 1000 nM, respectively.

On to `C[C@]12CC[C@H]3[C@@H](CC[C@@H]4C[C@H](O[C@@H]5O[C@H](CO)[C@@H](O)[C@H](O[C@H]6O[C@H](CO)[C@@H](O)[C@H](O)[C@H]6O)[C@H]5O)CC[C@@]43CO)[C@@]1(O)CC[C@@H]2C1=CC(=O)OC1`, for which, in the assay on PANC-1 [2], the Activity stood at 100%. The half-inhibitory concentration (IC50) with HeLa is 170 nM; with PANC-1 [1], 70 nM.

Regarding `C[C@]12CC[C@H]3[C@@H](CC[C@@H]4C[C@H](O[C@@H]5O[C@H](CO)[C@@H](O)[C@@H](O[C@H]6O[C@H](CO)[C@@H](O)[C@H](O)[C@H]6O)[C@H]5O)CC[C@@]43CO)[C@@]1(O)CC[C@@H]2C1=CC(=O)OC1`, the Activity in the assay with PANC-1 [2] was 100%. The IC50 in the assay with HeLa was 170 nM; in the assay on PANC-1 [1], 80 nM.

With `C[C@]12CC[C@H]3[C@@H](CC[C@@H]4C[C@@H](O)[C@H](O)C[C@@]43CO)[C@@]1(O)CC[C@@H]2C1=CC(=O)OC1`, the IC50 was > 10000 nM in the assay on HeLa and 5100 nM with PANC-1 [1].

In the case of `COC(=O)[C@@]1(C)C[C@@H](C)O[C@H]1O[C@@H]1C[C@H]2CC[C@@H]3[C@H](CC[C@]4(C)[C@@H](C5=CC(=O)OC5)C[C@@H](O)[C@]34O)[C@@]2(C(=O)O)C[C@H]1O`, the IC50 with HeLa was > 10000 nM; with PANC-1 [1], 5200 nM.

In the case of `C[C@]12CC[C@H]3[C@@H](CC[C@@H]4C[C@@H](O)[C@H](O)C[C@@]43C=O)[C@@]1(O)[C@H](O)C[C@@H]2C1=CC(=O)OC1`, the IC50 in the assay with HeLa and in the assay with PANC-1 [1] was > 10000 nM in each case.

As to `C[C@]12CC[C@H]3[C@@H](CC[C@@H]4C[C@H](O[C@@H]5O[C@H](CO)[C@@H](O)[C@@H](O)[C@H]5O)CC[C@@]43COC=O)[C@@]1(O)CC[C@@H]2C1=CC(=O)OC1`, the IC50 in the assay with HeLa came to 670 nM; in the assay on PANC-1 [1] it was 250 nM.

With `Nc1ccn([C@@H]2O[C@H](CO)[C@@H](O)C2(F)F)c(=O)n1` [GEMCITABINE], the IC50 in the assay with PANC-1 [1] turned out to be 5900 nM. In addition, the result in the assay with PANC-1 [3] was inactive.

On to `C[C@]12CC[C@H]3[C@@H](CC[C@@H]4C[C@H](O[C@@H]5O[C@H](CO)[C@@H](O)[C@@H](O)[C@H]5O)CC[C@@]43CO)[C@@]1(O)CC[C@@H]2C1=CC(=O)OC1`, for which the IC50 in the assay on HeLa is 560 nM; in the assay with PANC-1 [1] it was 280 nM.
